From patent US20030114469A1, “Combinations” (priority 2001, published 2003)

What follows are compounds tested against T1, human PDE5, partially purified from human platelets (Homo sapiens, UniProt O76074) (assay: PDE5 Assay (SPA, 3H-cGMP)). Conditions: not given.
T1 construct: human PDE5, partially purified from human platelets; from tissue; host or cells: human platelets
Format: biochemical
Procedure: 10 μL of each of these solutions is transferred to a selected well of a 96-well Optiplate microtitre plate (e.g., Packard). To determine total binding, 10 μL of aqueous 20% v/v DMSO is added to other selected wells. To determine non-specific binding, a 10 mM solution of sildenafil in 100% DMSO is diluted 20-fold with aqueous 20% v/v DMSO and 10 μL of the resulting solution is added to further selected wells of the Optiplate plate. […] (The PDE Assay Buffer is prepared by dissolving Tris-base (7.56 g) in water (800 mL), adding 1 M aqueous MgCl2 (10.325 mL) and 0.5 M EDTA (4.25 mL), adjusting the pH to 7.5 with 1N hydrochloric acid and making up to 1 L with water). A solution of human PDE5, partially purified from human platelets (11 μL, containing 0.017 units of PDE5 per mL, where 1 unit hydrolyses 1.0 μmole of 3′,5′-cyclic GMP to 5′-GMP per minute at pH 7.5 at 37° C.), in 20 mM Hepes, pH 7.4, 100 mM sodium chloride, 10% v/v glycerol, 1 mM benzamidine and 2 mM dithiotherietol, is diluted 200-fold, with Enzyme Buffer prepared by adding 0.5 M EDTA (2 mL) to a solution of Tris-Base (1.21 g) in water (800 mL), adjusting the pH to 7.5 with 1N HCl and making up to 1 L with water. The diluted PDE5 solution (10 μL) is added to all wells containing test compound, aqueous DMSO or sildenafil solution. The plate is incubated at room temperature for 1 hour. Fifty (50) μL of a suspension of 500 mg PDE Yttrium silicate SPA beads (e.g., Amersham) in 28 mL water is added to each of the wells and the plate is incubated for a further 20 minutes and then sealed using Top Seal-S (e.g., Packard) according to the manufacturer's instructions. The resulting scintillations are counted using a Canberra Packard Top Count (1 minute per well), as a measure of the extent to which binding of PDE5 to the beads is inhibited.

| Structure (SMILES) | IC50 [nM] |
| --- | --- |
| COc1cc2c(Cc3nc4c([nH]3)c(=O)n(C)c(=O)n4CC(C)C)cnc(C)c2cc1OC [Example 7, 8-(6,7-dimethoxy-1-methyl-isoquinolin-4-ylmethyl)-3-isobutyl-1-methyl-3,7-dihydro-purine-2,6-dione] | 7 |
| COc1cc2cncc(Cc3nc4c([nH]3)c(=O)n(C)c(=O)n4CC(C)C)c2cc1OC [Example 10, 8-(6,7-dimethoxy-isoquinolin-4-ylmethyl)-3-isobutyl-1-methyl-3,7-dihydro-purine-2,6-dione] | 10 |
| COc1cc2cncc(Cc3nc4c([nH]3)c(=O)n(C)c(=O)n4CC(C)(C)C)c2cc1OC [Example 15] | 6 |
| COc1ccc2cncc(Cc3nc4c([nH]3)c(=O)n(C)c(=O)n4CC(C)C)c2c1 [Example 45, 3-isobutyl-8-(6-methoxy-isoquinolin-4-ylmethyl)-1-methyl-3,7-dihydro-purine-2,6-dione] | 2 |
| COc1cc2cncc(Cc3nc4c([nH]3)c(=O)n(C)c(=O)n4CC(C)CO)c2cc1OC (stereo not shown) [Example 68, 8-(6,7-dimethoxy-isoquinolin-4-ylmethyl)-3-(3-hydroxy-2-methyl-propyl)-1-methyl-3,7-dihydro-purine-2,6-dione] | 7 |

Same assay, conditions: human platelet PDE5, 3H-cGMP, room temperature 1 hour, yttrium silicate SPA beads; read-out: IC50 (concentration of test compound at which 50% inhibition of PDE5 binding to the beads occurs)

| Structure (SMILES) | IC50 [nM] |
| --- | --- |
| COc1cc2c(Cc3nc4c([nH]3)c(=O)n(C)c(=O)n4CC(C)C)cnc(Cl)c2cc1OC [Example 35, 8-(1-chloro-6,7-dimethoxy-isoquinolin-4-ylmethyl)-3-isobutyl-1-methyl-3,7-dihydro-purine-2,6-dione] | 10 |
| COc1ccc2cncc(Cc3nc4c([nH]3)c(=O)n(C)c(=O)n4CC3CC3)c2c1 [Example 49] | 3.7 |
| C#Cc1ccc2cncc(Cc3nc4c([nH]3)c(=O)n(C)c(=O)n4CC(C)C)c2c1 [Example 55, 8-(6-ethynyl-isoquinolin-4-ylmethyl)-3-isobutyl-1-methyl-3,7-dihydro-purine-2,6-dione] | 5.5 |
| COc1cc2cncc(Cc3nc4c([nH]3)c(=O)n(C)c(=O)n4Cc3ccc(NS(=O)(=O)N(C)C)cc3)c2cc1OC [Example 60] | 2.8 |
| COc1cc2cncc(Cc3nc4c(=O)n(C)c(=O)n(CC5(C)CC5)c4[nH]3)c2cc1OC [Example 70, 8-(6,7-dimethoxy-isoquinolin-4-ylmethyl)-1-methyl-3-(1-methyl-cyclopropylmethyl)-3,9-dihydro-purine-2,6-dione] | 9 |
